From patent US4791215A, “Derivatives of glutamic acid and aspartic acid” (priority 1984, dated 1988)

How the values were obtained:
morphine analgesia = experiment: Increase in analgesia of morphine, Tail Flick Test (Experiment 1); type: in vivo, rats; settings: for M (10-90) ± SE, mean percentage variation of latency: mean 10-90 min; for Power ratio with respect to morphine alone: rat, in vivo
Method in brief: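 Non-fasted male rats (150-200 g); a tail point is exposed to a 75 °C heat source and latency to tail movement recorded, 8 s cut-off. Readings taken before and 10, 20, 30, 45, 60 and 90 min after analgesic treatment; percentage variation calculated per animal.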

[1] = system: endogenous opiates analgesia; experiment: Analgesic activity of endogenous opiates released by transcutaneous shock, Tail Flick Test (Experiment 3); type: in vivo, rats
Protocol: Experiment No. 3: Influence of several of the compounds of the invention on the analgesic activities of endogenous opiates released by transcutaneous shock in rats and measured by the Tail Flick Test
The method is that described by Lewis et al. J. Neurosc. 1, 358 […]. Male rats which have not fasted and have a weight of about 200 g are used.
The animals are stressed by the application of a 60 Hz-2.5 mA current to the front leg in pulses of a duration of 1 second every 5 seconds for 20 minutes.
This stress regime induces the release of endogenous opiates.

[2] = system: CCK-8 induced contraction of guinea pig gall bladder; experiment: Anti-CCK activity on gall bladder strips in vitro; settings: CCK-8 10 ng/ml
Method in brief: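 Longitudinal guinea pig gall bladder strips in Krebs at 32 °C, gassed with O2/CO2 95:5, were contracted with 10 ng/ml CCK-8. Isometric force was recorded across several compound concentrations, and ED50 was taken as the μg/ml concentration antagonising 50% of the CCK contraction.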

[3] = system: tolerance induced by morphine; experiment: Antagonism to development of tolerance to repeated morphine HCl, Tail Flick Test (Experiment 5)
Protocol: Experiment No. 5: Antagonism of several products of the invention to the development of tolerance induced in rats by the repeated administration of morphine HCl.
Several of the compounds of the invention were examined to determine their possible capacity to antagonise the development of tolerance induced by morphine. Groups of 6 male rats having a weight of about 200-250 grams were used.
At intervals of 24 hours from the first treatment (time 0) each animal (except the control group treated physiologically) received 5 mg/kg of morphine hydrochloride i.p. together with 10 mg/kg i.p. of the compounds indicated (with the exception of the group treated solely with morphine).
The determination of the pain threshold was effected 15', 30', 45' and 60' from the treatment by the Tail Flick Test.

[4] = system: enkephalinamide (DALA) analgesia; experiment: Potentiation of DALA (enkephalinamide) analgesia, i.c.v., Tail Flick Test (Experiment 4); type: in vivo, rats; set-up: scale not given here
From the text: Experiment No. 4: Potentiation of the analgesic activities of enkephalins induced by some of the compounds of the invention. […]

[5] = 10', compound 10 mg/kg i.p. + morphine 2 mg/kg
[6] = 20', compound 10 mg/kg i.p. + morphine 2 mg/kg
[7] = 30', compound 10 mg/kg i.p. + morphine 2 mg/kg
[8] = 45', compound 10 mg/kg i.p. + morphine 2 mg/kg
[9] = 60', compound 10 mg/kg i.p. + morphine 2 mg/kg
[10] = 90', compound 10 mg/kg i.p. + morphine 2 mg/kg
[11] = compound 10 mg/kg i.p. + morphine 2 mg/kg
[12] = compound 1 mg/kg iv + stress, 5'
[13] = compound 1 mg/kg iv + stress, 10'
[14] = compound 1 mg/kg iv + stress, 15'
[15] = compound 3 mg/kg iv + stress, 5'
[16] = compound 3 mg/kg iv + stress, 10'
[17] = compound 3 mg/kg iv + stress, 15'

CC(C)c1ccc(C(=O)NC(CCC(=O)N2CCCCC2)C(=O)O)cc1 (racemic) [Compound D-17]
percentage variation of latency of pain sensation (morphine analgesia; [5]): 62.3 ± 15%
percentage variation of latency of pain sensation (morphine analgesia; [6]): 92.9 ± 7%
percentage variation of latency of pain sensation (morphine analgesia; [7]): 100 ± 0%
percentage variation of latency of pain sensation (morphine analgesia; [8]): 100 ± 0%
percentage variation of latency of pain sensation (morphine analgesia; [9]): 100 ± 0%
percentage variation of latency of pain sensation (morphine analgesia; [10]): 100 ± 0%
M (10-90) ± SE, mean percentage variation of latency (morphine analgesia; [11]): 92.5 ± 15%
Power ratio with respect to morphine alone (morphine analgesia): 3.10
average latency, Tail Flick [1, 12]: 6.18 ± 0.65 s
average latency, Tail Flick [1, 13]: 7.02 ± 0.76 s
average latency, Tail Flick [1, 14]: 5.31 ± 0.55 s
average latency, Tail Flick [1, 15]: 9.08 ± 0.55 s
average latency, Tail Flick [1, 16]: 9.08 ± 0.80 s
average latency, Tail Flick [1, 17]: 6.08 ± 0.98 s
ED50 (concentration antagonising 50% of contracting effect of CCK-8) [2]: > 300 mg/L

CCCN(CCC)C(=O)C(CCC(=O)O)NC(=O)c1ccc(C(F)(F)F)cc1 (centres unmarked) [Compound C-39]
percentage variation of latency of pain sensation (morphine analgesia; [5]): 44.9 ± 15%
percentage variation of latency of pain sensation (morphine analgesia; [6]): 100.0 ± 0%
percentage variation of latency of pain sensation (morphine analgesia; [7]): 93.3 ± 7%
percentage variation of latency of pain sensation (morphine analgesia; [8]): 94.4 ± 6%
percentage variation of latency of pain sensation (morphine analgesia; [9]): 85.6 ± 7%
percentage variation of latency of pain sensation (morphine analgesia; [10]): 81.8 ± 10%
M (10-90) ± SE, mean percentage variation of latency (morphine analgesia; [11]): 83.3 ± 20%
Power ratio with respect to morphine alone (morphine analgesia): 2.79
average latency, Tail Flick [1, 12]: 6.3 ± 0.4 s
average latency, Tail Flick [1, 13]: 5.8 ± 0.38 s
average latency, Tail Flick [1, 14]: 4.04 ± 0.36 s
average latency, Tail Flick [1, 15]: 7.54 ± 0.65 s
average latency, Tail Flick [1, 16]: 5.98 ± 0.41 s
average latency, Tail Flick [1, 17]: 5.08 ± 0.6 s

CCCCN(CCCC)C(=O)CCC(NC(=O)c1ccc(C#N)cc1)C(=O)O [Compound D-8]
percentage variation of latency of pain sensation (morphine analgesia; [5]): 29.0 ± 15.0%
percentage variation of latency of pain sensation (morphine analgesia; [6]): 50.9%
percentage variation of latency of pain sensation (morphine analgesia; [7]): 61.4 ± 22.0%
percentage variation of latency of pain sensation (morphine analgesia; [8]): 57.7 ± 18.0%
percentage variation of latency of pain sensation (morphine analgesia; [9]): 52.9 ± 20.0%
percentage variation of latency of pain sensation (morphine analgesia; [10]): 28.3 ± 12.0%
M (10-90) ± SE, mean percentage variation of latency (morphine analgesia; [11]): 46.7 ± 14.4%
Power ratio with respect to morphine alone (morphine analgesia): 1.56
ED50 (concentration antagonising 50% of contracting effect of CCK-8) [2]: > 200 mg/L
percentage variation in latency time (Effect %) ([3]; compound 10 mg/kg + morphine 5 mg/kg i.p., 24 h): 43.65%
percentage variation in latency time (Effect %) ([3]; compound 10 mg/kg + morphine 5 mg/kg i.p., 48 h): 32.80%
percentage variation in latency time (Effect %) ([3]; compound 10 mg/kg + morphine 5 mg/kg i.p., 72 h): 31.78%
percentage variation in latency time (Effect %) ([3]; compound 10 mg/kg + morphine 5 mg/kg i.p., 96 h): 35.45%
percentage variation in latency time (Effect %) ([3]; compound 10 mg/kg + morphine 5 mg/kg i.p., 120 h): 42.08%
percentage variation in latency time (Effect %) ([3]; compound 10 mg/kg + morphine 5 mg/kg i.p., 144 h): 29.33%
percentage variation in latency time (Effect %) ([3]; compound 10 mg/kg + morphine 5 mg/kg i.p., 168 h): 19.17%
percentage variation in latency time (Effect %) ([3]; compound 10 mg/kg + morphine 5 mg/kg i.p., time 0): 47.32%

CSCC[C@H](NC(=O)[C@H](Cc1ccccc1)NC(=O)CNC(=O)[C@@H](C)NC(=O)[C@@H](N)Cc1ccc(O)cc1)C(N)=O [DALA, D-ala-methionine-enkephalinamide, reference compound]
analgesic activity, Tail Flick ([4]; DALA 10 μg/kg ICV alone, 10'): 21.9
analgesic activity, Tail Flick ([4]; DALA 10 μg/kg ICV alone, 20'): 25.9
analgesic activity, Tail Flick ([4]; DALA 10 μg/kg ICV alone, 30'): 26.2
analgesic activity, Tail Flick ([4]; DALA 10 μg/kg ICV alone, 45'): 26.0
analgesic activity, Tail Flick ([4]; DALA 10 μg/kg ICV alone, 60'): 7.3
analgesic activity, Tail Flick ([4]; DALA 10 μg/kg ICV alone, 90'): 5.0
MEAN analgesic activity, Tail Flick ([4]; DALA 10 μg/kg ICV alone): 18.7
analgesic activity, Tail Flick ([4]; DALA 10 mg/kg (ICV) as printed, alone, 10'): 4.1
analgesic activity, Tail Flick ([4]; DALA 10 mg/kg (ICV) as printed, alone, 20'): 6.24
analgesic activity, Tail Flick ([4]; DALA 10 mg/kg (ICV) as printed, alone, 30'): 9.19
analgesic activity, Tail Flick ([4]; DALA 10 mg/kg (ICV) as printed, alone, 45'): 8.29
analgesic activity, Tail Flick ([4]; DALA 10 mg/kg (ICV) as printed, alone, 60'): 6.20
analgesic activity, Tail Flick ([4]; DALA 10 mg/kg (ICV) as printed, alone, 90'): 10.56
MEAN analgesic activity, Tail Flick ([4]; DALA 10 mg/kg (ICV) as printed, alone): 7.51

CN1CC[C@]23c4c5ccc(O)c4O[C@H]2[C@@H](O)C=C[C@H]3[C@H]1C5 [Morphine, reference compound]
percentage variation of latency of pain sensation (morphine analgesia; 10', morphine 2 mg/kg alone): 10.8 ± 4.0%
percentage variation of latency of pain sensation (morphine analgesia; 10', morphine 2 mg/kg alone, listed as Morphene): 10.8%
percentage variation of latency of pain sensation (morphine analgesia; 20', morphine 2 mg/kg alone): 54.2 ± 17.0%
percentage variation of latency of pain sensation (morphine analgesia; 20', morphine 2 mg/kg alone, listed as Morphene): 54.2 ±17%
percentage variation of latency of pain sensation (morphine analgesia; 30', morphine 2 mg/kg alone): 46.6 ± 21.0%
percentage variation of latency of pain sensation (morphine analgesia; 30', morphine 2 mg/kg alone, listed as Morphene): 46.6 ± 21%
percentage variation of latency of pain sensation (morphine analgesia; 45', morphine 2 mg/kg alone): 41.7 ± 16.0%
percentage variation of latency of pain sensation (morphine analgesia; 45', morphine 2 mg/kg alone, listed as Morphene): 41.7%
percentage variation of latency of pain sensation (morphine analgesia; 60', morphine 2 mg/kg alone): 32.0%
percentage variation of latency of pain sensation (morphine analgesia; 60', morphine 2 mg/kg alone, listed as Morphene): 32 ± 17%
percentage variation of latency of pain sensation (morphine analgesia; 90', morphine 2 mg/kg alone): -6.4 ± 10.0%
percentage variation of latency of pain sensation (morphine analgesia; 90', morphine 2 mg/kg alone, listed as Morphene): -6.4 ± 10%
M (10-90) ± SE, mean percentage variation of latency (morphine analgesia; morphine 2 mg/kg alone): 29.8 ± 23.0%
M (10-90) ± SE, mean percentage variation of latency (morphine analgesia; morphine 2 mg/kg alone, listed as Morphene): 29.8%
day at which activity reaches level of inactivity (0) ([3]; from the straight lines of regression): fell to 0 on the sixth day of treatment
percentage variation in latency time (Effect %) ([3]; morphine 5 mg/kg i.p. alone, 24 h): 42.09%
percentage variation in latency time (Effect %) ([3]; morphine 5 mg/kg i.p. alone, 48 h): 26.54%
percentage variation in latency time (Effect %) ([3]; morphine 5 mg/kg i.p. alone, 72 h): 19.96%
percentage variation in latency time (Effect %) ([3]; morphine 5 mg/kg i.p. alone, 96 h): 10.79%
percentage variation in latency time (Effect %) ([3]; morphine 5 mg/kg i.p. alone, 120 h): 4.45%
percentage variation in latency time (Effect %) ([3]; morphine 5 mg/kg i.p. alone, 168 h): 2.12%
percentage variation in latency time (Effect %) ([3]; morphine 5 mg/kg i.p. alone, time 0): 58.03%
activity versus controls / morphine group during treatment ([3]; up to 168 hours): not significantly different from the control group
